Laboratory results taken from US12350273B2, “Treatment of SMA” (Hoffmann-La Roche Inc., priority 2017, dated 2025).

What was measured:
retina [1] = assay: 26 weeks of treatment in pigmented rats: retina; format: in vivo
retina [2] = assay: 39-week monkey toxicity study: retina effects (ERG, sdOCT, histopathology), NOAEL; details: for ERG B-wave amplitude, left eye / ERG B-wave amplitude, right eye: Animal 0114 (female, 7.5/5 mg/kg/day)
SMN protein [3] = assay: Study BP39055 Part 1: SMN protein in Type 2 and 3 SMA patients; format: in vivo, human
Description: Study BP39055 is a two-part operationally seamless, multi-center, randomized, placebo-controlled, double-blind study to investigate the safety, tolerability, pharmacokinetics (PK), pharmacodynamics (PD) and efficacy of RO7034067 in Type 2 and 3 spinal muscular atrophy (SMA) patients. The study consists of an exploratory dose-finding part (Part 1) and a confirmatory part (Part 2).
The primary objective of Part 1 is to evaluate the safety, tolerability, PK and PD of RO7034067 in patients with Type 2 and Type 3 (ambulant or non-ambulant) SMA, and to select the dose for Part 2 of the study.
Part 1 was a double-blinded, placebo-controlled, randomized (2:1 RO7034067:placebo), exploratory dose-finding study in Type 2 and Type 3 (ambulant and non-ambulant) SMA patients. This will be followed by an open-label extension (OLE) at the same dose as selected for Part 2 of the study.
Part 1 of the study enrolled patients in two age groups: • Group A: adolescent and adult patients aged 12 25 years • Group B: children aged 2 11 years RO7034067 dose levels were investigated in a staggered, dose escalation manner in both age groups.
The dose recommended by the IMC for this age group according to the target AUC0-24 h,ss of 700 ng[…]h/mL was 0.02 mg/kg (see IMC recommendation of 12 Dec. 2016 in Appendix 1); 10 patients aged 3-11 years were enrolled in Cohort B1. • At the same time point (i.e., once safety and tolerability were confirmed based on the review of at least 4 weeks of treatment at 3 mg once daily in 9 patients in Cohort A1), enrolment was opened to another cohort of 9 adult and adolescent patients (Cohort A2) receiving RO7034067 5 mg once daily (see IMC recommendation of 19 Jan. 2017 in Appendix 1). As per protocol, the higher dose level was determined such as to achieve maximum SMN protein increase, without exceeding the exposure cap (Cmax 400 ng/mL; mean AUC0 24 h,ss 2000 ng[…]h/mL); 10 patients aged 13[…]24 years were enrolled in Cohort A2. • Based on the review of a minimum of 4 weeks of treatment at 0.02 mg/kg in 9 patients enrolled in Cohort B1, the following recommendations were made by the IMC: i) to increase the dose in these patients to 0.05 mg/kg without exceeding a cap dose of 3 mg, and ii) to enroll a minimum of 9 additional patients aged 2[…]11 years at a dose of 0.05 mg/kg without exceeding a cap dose of 3 mg (Cohort B2), targeting at least 5 patients aged 2[…]6 years (see IMC recommendation of 13 Mar. […] At the same time point, enrollment was opened to another cohort of 9 patients at the dose of 0.25 mg/kg without exceeding a cap dose of 5 mg (Cohort B3), determined such as to achieve maximum Survival of Motor Neuron (SMN) protein increase, without exceeding the exposure cap (Cmax 400 ng/mL; mean AUC0-24 h,ss 2000 ng[…]h/mL); 10 patients aged 2[…]11 years were enrolled in Cohort B3. • Upon completion of at least 12 weeks of placebo-controlled treatment by a minimum of 9 patients of each cohort, the IMC reviewed all available data from the cohort to make the decision to switch placebo patients to active treatment at the dose tested in their respective cohort. Dates of the IMC decisions to switch placebo patients to active treatment in the respective cohorts are provided in Section 1.3. • For the last cohort in Part 1 (Cohort B3), all available safety, tolerability, PK and PD data following completion of a minimum of 4 weeks treatment by the 9th patient (including all available data for the 10th patient of the last cohort who was enrolled approximately 1 week after the 9th patient, and all available data from all previous cohorts) were reviewed by the IMC in order to select the dose to be administered in Part 2 of the study. This dose selection was confirmed by the external iDMC following review of the same data package. […]

SMN protein [4] = assay: SMN protein (HTRF) in brain and quadriceps muscle of C/C-allele mice; format: in vivo
Protocol: FIG. 1A-FIG. 1D: Increase in SMN Protein Expression In Vivo • HET=heterogygous. • C/C-allele mice and SMNΔ7 mice were treated with RO7034067. One hour after the last dose, brains and quadriceps muscles were collected and levels of SMN protein were assessed by HTRF. FIG. 1A. SMN protein in brains of C/C-allele mice. FIG. 1B. SMN protein in brains of SMNΔ7 mice. FIG. 1C. SMN protein in quadriceps muscle of C/C-allele mice. FIG. 1D. SMN protein in quadriceps muscle of SMNΔ7 mice. Data represent means±SEM of 5-6 animals per group and are expressed as fold change vs. vehicle-treated controls. *=p<0.05, **=p<0.01, ***=p<0.001 vs. untreated controls.
Adult C/C-allele mice were treated for 10 days with vehicle or RO7034067 (1, 3 or 10 mg/kg per os [PO], daily), and PND3 SMNΔ7 mice were treated for 7 days with vehicle or RO7034067 (0.1, 0.3, 1 or 3 mg/kg intraperitoneal [IP], daily). […] In SMNΔ7 mice, the SMN protein increase was only partial in both brain and muscle, reaching approximately 43% (brain) and 55% (muscle) of protein levels in heterozygous mice.

Cc1cn2nc(-c3cc(=O)n4cc(N5CCNC6(CC6)C5)ccc4n3)cc(C)c2n1 [RO7034067, 7-(4,7-diazaspiro[2.5]octan-7-yl)-2-(2,8-dimethylimidazo[1,2-b]pyridazin-6-yl)pyrido[1,2-a]pyrimidin-4-one]
retinal effects (retina [1]): no evidence for any retinal effects
animals noted with ERG deficits (retina [2]; 1.5 mg/kg/day): No animals
retinal appearance by sdOCT (retina [2]; 1.5 mg/kg/day): retained a normal retinal appearance
AUC0-24h exposure free of retina effects (NOEL/NOAEL of the retina finding), females (retina [2]; 1.5 mg/kg/day, 39 weeks, females): 2060 ng·h/mL
AUC0-24h exposure free of retina effects (NOEL/NOAEL of the retina finding), males (retina [2]; 1.5 mg/kg/day, 39 weeks, males): 1870 ng·h/mL
animals with adverse histopathologic degeneration in mid to peripheral retina (retina [2]; 3 mg/kg/day): one female
animals with adverse histopathologic degeneration in mid to peripheral retina (retina [2]; 7.5/5 mg/kg/day): two animals/sex
ERG finding in several animals (retina [2]; 7.5/5 mg/kg/day, Week 20 of the dosing phase): markedly depressed scotopic and photopic ERGs
primary finding of 39-week administration (retina [2]; 7.5/5 mg/kg/day, correlated with nonadverse epidermal hyperplasia): clinical signs in the skin
reversibility of retinal degeneration (histopathology) (retina [2]; 22-week recovery period): not reversible during the recovery period
recovery of MMD and depressed ERG (retina [2]; 22-week recovery phase): almost fully recovered
ERG B-wave amplitude, left eye (retina [2]; recovery Week 22): 52.7 mcV
ERG B-wave amplitude, right eye (retina [2]; recovery Week 22): 43.4 mcV
ERG B-wave amplitude, left eye (retina [2]; recovery week 8): 33.5 mcV
ERG B-wave amplitude, right eye (retina [2]; recovery week 8): 34.1 mcV
lowest AUC0-24h exposure at the mid-dose with retina findings (retina [2]; animal No. 11): 4540 ng·h/mL
lowest AUC0-24h exposure at the mid-dose with retina findings (retina [2]; animal No. 109): 4560 ng·h/mL
lowest AUC0-24h exposure at the mid-dose with retina findings (retina [2]; animal No. 111): 4560 ng·h/mL
animals with rod ERGs below the criteria (retina [2]; females, 1 mg/kg/day, Week 34): Two
animals with depressed rod responses (ERG grading) (retina [2]; females, 3 mg/kg/day, Week 22): all three
animals with depressed rod responses (ERG grading) (retina [2]; females, 3 mg/kg/day, Week 27): none
animals with depressed rod responses (ERG grading) (retina [2]; females, 3 mg/kg/day, Week 35): 1 of 3
animals with depressed rod responses (ERG grading) (retina [2]; females, 7.5/5 mg/kg/day, Week 20): 4 of 5
animals with depressed rod responses (ERG grading) (retina [2]; females, 7.5/5 mg/kg/day, Week 26): 2 of 5
animals with depressed rod responses (ERG grading) (retina [2]; females, 7.5/5 mg/kg/day, Week 34): 4 of 5
individual AUC0-24h exposure free of effects on the retina (retina [2]; individual animals, end of study): up to 2300 ng·h/mL
ERG finding (retina [2]; intermediate and low dose groups (3.0 and 1.5 mg/kg/day), dosing phase): generally remained within expected limits
animals with rod response below the expected range (retina [2]; males, 1 mg/kg/day): No males
animals with depressed rod responses (ERG grading) (retina [2]; males, 3 mg/kg/day, Week 22): 1 of 3
animals with depressed rod responses (ERG grading) (retina [2]; males, 3 mg/kg/day, Week 26 or 35): none
sdOCT finding (retina [2]; males, 3 mg/kg/day, Weeks 22, 27 and 35): minimal/mild retinal disorganization in the periphery
animals with depressed rod responses (ERG grading) (retina [2]; males, 7.5/5 mg/kg/day, Week 20): Four of five
animals with depressed rod responses (ERG grading) (retina [2]; males, 7.5/5 mg/kg/day, Week 26): 2 of 5
animals with depressed rod responses (ERG grading) (retina [2]; males, 7.5/5 mg/kg/day, Week 34): 5 of 5
Fold-Increase from the Baseline in SMN Protein on Day 28, median (SMN protein [3]; 0.02 mg): 1.09 fold
Fold-Increase from the Baseline in SMN Protein on Day 28, median (SMN protein [3]; 0.05 mg): 1.51 fold
Fold-Increase from the Baseline in SMN Protein on Day 28, median (SMN protein [3]; 0.15 mg/kg): 1.67 fold
Fold-Increase from the Baseline in SMN Protein on Day 28, median (SMN protein [3]; 0.25 mg/kg): 1.96 fold
SMN protein increase versus baseline (median) (SMN protein [3]; 0.25 mg/kg, 2-11 year age group): 96%
Fold-Increase from the Baseline in SMN Protein on Day 28, median (SMN protein [3]; 3 mg): 2.25 fold
Fold-Increase from the Baseline in SMN Protein on Day 28, median (SMN protein [3]; 5 mg): 2.51 fold
median SMN protein increase versus baseline (SMN protein [3]; 5 mg, SMA patients 12-25 years old): 151%
SMN levels in muscle compared with heterozygous mice (SMN protein [4]; C/C-allele mice, 10 mg/kg): no different from those in heterozygous mice
SMN protein levels in brain and muscle tissue, maximum effect (SMN protein [4]; adult C/C-allele mice, 10 mg/kg PO daily, 10 days): 2-3 fold
